The numbers were not newly measured in patent US20200397798A1, “COMBINATION THERAPIES WITH FARNESOID X RECEPTOR (FXR) MODULATORS” (Akarna Therapeutics, Ltd., priority 2016, published 2020), which cites them from elsewhere.

Entries after “also recorded” stand apart in the source; their conditions may differ.

One data set has as its system KK-A(y) mice. Particulars: mouse, in vivo.
For data set [1], the system named is plasma triglyceride levels. Conditions: human, in vivo.
Data set [2] deals with DSS- and TNBS-induced intestinal inflammation. Conditions: wild type, but not Fxr−/− mice.
In data set [3] the test system is CGD-susceptible C57L mice. Conditions: lithogenic diet supplemented with GW4064, 1 week.
A further data set concerns mice. Particulars: in vivo.
Another data set has as its system ob/ob and db/db mice. Particulars: mouse, in vivo.
The test system of data set [4] is patients with biopsy-proven NASH. Particulars: OCA arm, 25 mg orally daily.
For data set [5], the system named is C57BL/6 mice fed an MCD diet.

On to `C[C@H](CCC(=O)O)[C@H]1CC[C@H]2[C@@H]3[C@H](O)C[C@@H]4C[C@H](O)CC[C@]4(C)[C@H]3C[C@H](O)[C@]12C` [CA], for which the “hepatic TG accumulation and VLDL secretion” value in the data set with KK-A(y) mice is listed as “prevented”.

In the case of `C[C@H](CCC(=O)O)[C@H]1CC[C@H]2[C@@H]3[C@H](O)C[C@@H]4C[C@H](O)CC[C@]4(C)[C@H]3CC[C@]12C` [CDCA, chenodeoxycholic acid], in [1], the plasma triglyceride levels result is “decreased circulating TG levels; also recorded: reduces plasma triglyceride levels”.

On to `CC[C@H]1[C@@H](O)[C@@H]2[C@H](CC[C@]3(C)[C@@H]([C@H](C)CCC(=O)O)CC[C@@H]23)[C@@]2(C)CC[C@@H](O)C[C@@H]12` [Compound 6-ECDCA], for which the “expression of proinflammatory cytokines, chemokines and their receptors” value in data set [2] was “repressed”.

In the case of `CC(C)c1onc(-c2c(Cl)cccc2Cl)c1COc1ccc(/C=C/c2cccc(C(=O)O)c2)c(Cl)c1` [GW4064], the CGD onset entry in data set [3] is “prevented CGD onset”. Moreover, in the data set on T84 cells, the “Cl− secretory responses to Ca2+ and cAMP-dependent agonists” value is “attenuated”; the “nuclear translocation of the receptor (FXR)” value is “induced nuclear translocation”. In the data set with mice, the “ovalbumin-induced diarrhea and cholera toxin-induced intestinal fluid accumulation” value is “reduced”. For the same compound, the liver steatosis result in the data set with ob/ob and db/db mice was “able to prevent liver steatosis”.

`CC[C@H]1[C@@H](O)[C@@H]2[C@H](CC[C@]3(C)[C@@H]([C@H](C)CCC(=O)O)CC[C@@H]23)[C@@]2(C)CC[C@@H](O)C[C@@H]12` [OCA, obeticholic acid]: the “change in HDL, total cholesterol and LDL compared to placebo” value in [4] was “decrease in the high-density lipoprotein (HDL) and an increase in the total cholesterol and low-density lipoprotein (LDL)”.

On to `CC(C)OC(=O)C1=CN(C(=O)c2ccc(F)c(F)c2)CC(C)(C)c2c1[nH]c1ccccc21` [WAY-362450], for which the “elevations of serum ALT and AST induced by the MCD diet” value in data set [5] (4 weeks treatment) is reported as “markedly reduced”. In addition, the “hepatoprotective effects in FXR−/− mice” value in [5] (FXR−/− mice fed an MCD diet) is recorded as “abolished”.
